{
  "source": "paper PMC9332470",
  "about": "“Production and Selection of Antibody–Antigen Pairs for the Development of Immunoenzyme Assay and Lateral Flow Immunoassay Methods for Carbofuran and Its Analogues” (Biosensors, 2022)",
  "key": {"mAb 13C8 [1]": {"tested_on": "mAb 13C8", "experiment": "quantum dot-based LFIA (QD-LFIA) with mAb 13C8", "format": "binding, BALB/c mice", "protocol": "One milliliter of QDs was added to 9 mL of MES (0.054 M at pH 6.0) and centrifuged at 10,956× g for 20 min. Then, the precipitate was resuspended in 10 mL of MES (0.05 M at pH 6.0). After dispersion by ultrasonication for 2 min, EDC (20 mg) and NHS (20 mg) were added, and the reaction mixture was incubated for 30 min, followed by centrifugation at 10,956× g for 20 min. The precipitate was resuspended in 10 mL of MES (0.05 M at pH 6.0). Then, 1 mg of the mAb dissolved in 10 mL MES (0.027 M at pH 8.0) was added to the QD mixture and shaken at 25 °C and 180 rpm for 90 min. After the reaction, 5 mL of MES (0.054 M at pH 6.0 containing 1.6% BSA, w/v) was added, and the mixture was shaken at 25 °C and 180 rpm for 40 min, followed by centrifugation at 10,956× g for 20 min. The precipitate was resuspended in 10 mL of PB (0.01 M at pH 6.0, containing 5% casein, 1% glucose, 1.5% alanine and 0.05% NaN3, w/v) and dispersed by ultrasonication for 2 min.\nThe conjugate pad (6 mm × 300 mm) was pretreated with PBS (containing 0.5% Triton X-100, 0.5% alanine and 0.05% NaN3, w/v). Then, 1 mL of the mAb–QD conjugate was sprayed onto the pretreated conjugate pad at a flow rate of 10 μL/cm, and the pad was dried at 37 °C for 2 h. Other applied protocols were similar to those mentioned above.\nTaking the logarithm of the carbofuran concentration as the abscissa and (B/B0)% as the ordinate, the standard curves for ELISA and QD-LFIA were obtained based on the Morgan–Mercer–Flodin (MMF) model, which were fitted by CurveExpert 1.4.0 software (https://www.curveexpert.net, accessed on 15 July 2022). For the ELISA method, B and B0 are the absorbance of the sample well and blank well, respectively. For the QD-LFIA method, B and B0 are the T/C (fluorescence intensity of the test line/fluorescence intensity of the control line) of the sample and blank control, respectively.\n(§1) The inhibition ratio (I%) was calculated as (B0-B)/B0 × 100%. IC50 is the concentration of the carbofuran at an I% of 50%, and the limit of detection (LOD) was determined as the concentration showing 10% of inhibition.\nThe cross-reactivities (CRs) of benfuracarb, carbosulfan, 3-hydroxy-carbofuran, metolcarb, carbaryl, isoprocarb and aldicarb with carbofuran were assessed by ELISA and QD-LFIA. CR was calculated as CR (%) = [IC50 (carbofuran)/IC50 (analogues)] × 100%.\nThen, to prepare QD-LFIA test strips, DDB-BSA (40 μg/mL), DDB-OVA (50 μg/mL), MDA-BSA (35 μg/mL) and MDA-OVA (30 μg/mL) were dispensed onto the NC membrane, and antibody 13C8 was conjugated to the QDs. Carbofuran standards (0, 0.05, 0.15, 0.45, 1.35 and 4.05 ng/mL) were detected to obtain a standard curve, and the IC50 was calculated. […] In LFIA, carbofuran in solution competed with the coating antigen on the NC membrane for antibody 13C8 conjugated to the QDs.\nA standard curve was developed with the inhibition ratio (B/B0) versus the logarithm of the concentration of carbofuran."}, "mAb 13C8 [2]": {"tested_on": "mAb 13C8", "experiment": "ELISA reactivity of hybridoma supernatant, cell line 13C8", "format": "binding, BALB/c mice", "details": "cell line 13C8 supernatant, 50 ng/mL pesticide", "protocol": "(§2) The desired antibodies with the highest affinity were screened by icELISA with carbofuran as a competitive compound, and hybridoma cells were cloned by the limited dilution method. Then, the selected hybridoma cells were injected into mice for ascites production. Finally, the mAbs were purified by (NH4)2SO4 with saturation of 50% and further purified by an SPA column.\n(§3) Microplates were coated with coating antigens. Different concentrations of the standard (50 µL) and the mAb (50 µL) were added to each well, and the plates were incubated for 20 min at 37 °C. The plates were washed with PBS (0.01 M, containing 0.05% (v/v) Triton X-100), 100 μL of goat anti-mouse IgG-HRP conjugate solution was added to each well, and the plates were incubated for 20 min at 37 °C. After the plates were washed with PBS (0.01 M, containing 0.05% Triton X-100, v/v), 100 µL of TMB single-component substrate solution was added to each well, followed by incubation at 37 °C for 10 min. Finally, the reaction was terminated, and the absorbance at 450 nm was measured by a microplate reader.\nas §1\n(§4) Then, the reactivity of the supernatant of the six cell lines to 50 ng/mL carbofuran, benfuracarb and carbosulfan was assessed by ELISA, and the results are shown in Table 1. […] Because 13C8 had the highest reactivity with carbofuran, benfuracarb and carbosulfan among the six cell lines, it was injected into mice for ascites production, and the mAbs were purified by a protein A column for further experiments."}, "mAb 6D6": {"tested_on": "mAb 6D6", "experiment": "ELISA reactivity of hybridoma supernatant, cell line 6D6", "format": "binding, BALB/c mice", "details": "cell line 6D6 supernatant, 50 ng/mL pesticide", "protocol": "as §2, §3, §1, §4"}, "mAb 18G3": {"tested_on": "mAb 18G3", "experiment": "ELISA reactivity of hybridoma supernatant, cell line 18G3", "format": "binding, BALB/c mice", "details": "cell line 18G3 supernatant, 50 ng/mL pesticide", "protocol": "as §2, §3, §1, §4"}, "mAb 12H5": {"tested_on": "mAb 12H5", "experiment": "ELISA reactivity of hybridoma supernatant, cell line 12H5", "format": "binding, BALB/c mice", "details": "cell line 12H5 supernatant, 50 ng/mL pesticide", "protocol": "as §2, §3, §1, §4"}, "mAb 7F9": {"tested_on": "mAb 7F9", "experiment": "ELISA reactivity of hybridoma supernatant, cell line 7F9", "format": "binding, BALB/c mice", "details": "cell line 7F9 supernatant, 50 ng/mL pesticide", "protocol": "as §2, §3, §1, §4"}, "[3]": {"tested_on": "mAb with the immunogen BFNB-KLH", "details": "homologous coating antigen BFNB-OVA; cited from earlier work"}, "[4]": {"tested_on": "mAb with the immunogen BFNB-BSA", "details": "heterologous coating antigen BFNH-OVA; cited from earlier work"}, "[5]": {"tested_on": "mAb with the immunogen 3-succinyl-carbofuran-KLH", "details": "cited from earlier work"}, "[6]": {"tested_on": "broad-specificity mAb with the immunogen BFNB-BSA", "details": "cited from earlier work"}, "[7]": {"tested_on": "mAb with the immunogen BFNH-lactoferrin", "details": "heterologous coating antigen BFOA-BSA; cited from earlier work"}, "[8]": {"tested_on": "specific antibody against carbofuran", "details": "cited from earlier work"}},
  "data": [
    {"smiles": "CNC(=O)Oc1cccc2c1OC(C)(C)C2", "note": "[carbofuran]", "values": [
      {"measurement": "CR (%) (QD-LFIA)", "setting": "mAb 13C8 [1]; CR = IC50(carbofuran)/IC50(analogue) x 100%, QD-LFIA with mAb 13C8", "value": 100.0, "unit": "%"},
      {"measurement": "IC50 (QD-LFIA)", "setting": "mAb 13C8 [1]; antibody 13C8, antigen DDB-BSA (40 μg/mL) on NC membrane", "value": ">1000", "unit": "ng/mL"},
      {"measurement": "IC50 (QD-LFIA)", "setting": "mAb 13C8 [1]; antibody 13C8, antigen DDB-OVA (50 μg/mL) on NC membrane", "value": ">1000", "unit": "ng/mL"},
      {"measurement": "IC50 (QD-LFIA)", "setting": "mAb 13C8 [1]; antibody 13C8, antigen MDA-BSA (35 μg/mL) on NC membrane", "value": "0.68 ± 0.03", "unit": "ng/mL"},
      {"measurement": "IC50 (QD-LFIA)", "setting": "mAb 13C8 [1]; antibody 13C8, antigen MDA-OVA (30 μg/mL) on NC membrane", "value": "0.66 ± 0.03", "unit": "ng/mL"},
      {"measurement": "detection limit (QD-LFIA)", "setting": "mAb 13C8 [1]; concentration showing 10% of inhibition", "value": 0.04, "unit": "ng/mL"},
      {"measurement": "reaction of QD-LFIA test strips", "setting": "mAb 13C8 [1]; homologous coating antigens DDB-BSA and DDB-OVA", "value": "almost no reaction"},
      {"measurement": "working range (QD-LFIA)", "setting": "mAb 13C8 [1]; optimized QD-LFIA", "value": "0.04 to 4.21", "unit": "ng/mL"},
      {"measurement": "IC50 (QD-LFIA)", "setting": "mAb 13C8 [1]; optimized QD-LFIA, mAb 13C8-QD, T line antigen 30 μg/mL, given as MDA-BSA and MDA-OVA", "value": "0.67 ± 0.08", "unit": "ng/mL"},
      {"measurement": "IC50 of QD-LFIA with heterologous coating antigens", "setting": "mAb 13C8 [1]; span over MDA-BSA and MDA-OVA", "value": "0.66–0.68 ng/mL"},
      {"measurement": "Reactivity of mAb (I%)", "setting": "mAb 13C8 [2]", "value": 95, "unit": "%"},
      {"measurement": "Reactivity of mAb (I%)", "setting": "mAb 6D6", "value": 86, "unit": "%"},
      {"measurement": "Reactivity of mAb (I%)", "setting": "mAb 18G3", "value": 86, "unit": "%"},
      {"measurement": "Reactivity of mAb (I%)", "setting": "mAb 12H5", "value": 78, "unit": "%"},
      {"measurement": "Reactivity of mAb (I%)", "setting": "mAb 7F9", "value": 76, "unit": "%"},
      {"measurement": "IC50 (ic-ELISA)", "setting": "[3]", "value": 0.3, "unit": "ng/mL"},
      {"measurement": "IC50 (ic-ELISA)", "setting": "[4]", "value": 0.66, "unit": "ng/mL"},
      {"measurement": "CR(%) (ic-ELISA)", "setting": "[5]", "value": 100.0, "unit": "%"},
      {"measurement": "IC50 (ic-ELISA)", "setting": "[5]", "value": "0.76 ± 0.07", "unit": "ng/mL"},
      {"measurement": "CR(%) (ic-ELISA)", "setting": "[6]", "value": 100.0, "unit": "%"},
      {"measurement": "IC50 (ic-ELISA)", "setting": "[6]", "value": 8.97, "unit": "ng/mL"},
      {"measurement": "IC50 (ELISA)", "setting": "[7]", "value": 1.4, "unit": "ng/mL"},
      {"measurement": "IC50 (direct competitive ELISA)", "setting": "[8]", "value": 1.3, "unit": "ng/mL"}
    ]}
  ]
}
